# US20120065228A1, “COMPOSITIONS AND METHODS FOR TREATING, CONTROLLING, REDUCING, OR AMELIORATING OCULAR INFLAMMATORY WITH LOWER RISK OF INCREASED INTRAOCULAR PRESSURE” (priority 2007, published 2012)
# System: intraocular pressure (IOP) in New Zealand White rabbits
# Experiment: Intraocular pressure in New Zealand White rabbits, topical dosing four times daily
# Assay type: in vivo
# Details: for Intraocular Pressure, MEAN: A.M. readings
# Description: On Days 1-31, animals received daily topical doses of the appropriate test article into the right eye. Animals were dosed four times per day, with doses administered 2 hours apart. Doses were administered using a calibrated 50-μL pipette. The eyelids were held close for 10 seconds immediately following dosing. The time of each dose administration was recorded.
# Intraocular pressure (“IOP”) was determined for both eyes of each animal on Days 3, 5, 10, 12, 16, 18, 22, 24, 26, 30, and 32. LOP was evaluated with a Medtronic Solan, Model 30 classic pneumatonometer. Proparacaine hydrochloride 0.5% (1 drop) was delivered to each eye prior to IOP measurement. IOP was measured on Monday, Wednesday, and Friday of each week. A two-point diurnal curve was established: IOP was recorded at 8 a.m. and 12 p.m. on Day 3, and at 8 a.m. and 2 p.m. on later days, with a ±1 hour range for each of these times. The time of the measurements was recorded.
# Descriptive statistics were prepared for IOP data of each treatment group (left and right eyes separately) at each measurement interval. The statistics included the number of observations (“N”), mean, standard deviation (“STD”), and standard error (“SEM”). Statistical analyses were conducted on IOP results using Statistical Analysis Systems (SAS Institute, Inc., Cary, N.C., V8.0). Parameters were evaluated using analysis of variance/GLM Procedure followed by Tukey's Standardized Range Test (Tukey, 1985) for post hoc comparisons of group means. The level of significance was set at a probability of p<0.05 for all statistical procedures. Group IOP means were compared at each interval, with left and right eyes compared separately.
# IOP data for the following six animals were excluded from group statistics: Group A, Nos. 3081, 3037, 3068, and 3011; Group C, No. 3034; and Group E, No. 3084.
smiles,measurement,setting,value
Cc1ccc2c(NCC(O)(CC(C)(C)c3cc(F)cc4c3OCC4)C(F)(F)F)cccc2n1 (stereo not drawn) [BOL-303242-X],"Intraocular Pressure, MEAN","1 mg/g BOL-303242-X (Group D), untreated left eyes, Day 3",23.5 mmHg
same,"Intraocular Pressure, MEAN","1 mg/g BOL-303242-X (Group D), untreated left eyes, Day 5",24.4 mmHg
same,"Intraocular Pressure, MEAN","1 mg/g BOL-303242-X (Group D), untreated left eyes, Day 10",24.5 mmHg
same,"Intraocular Pressure, MEAN","1 mg/g BOL-303242-X (Group D), untreated left eyes, Day 12",22.2 mmHg
same,"Intraocular Pressure, MEAN","1 mg/g BOL-303242-X (Group D), untreated left eyes, Day 16",21.6 mmHg
same,"Intraocular Pressure, MEAN","1 mg/g BOL-303242-X (Group D), untreated left eyes, Day 18",23.3 mmHg
same,"Intraocular Pressure, MEAN","1 mg/g BOL-303242-X (Group D), untreated left eyes, Day 22",22.4 mmHg
same,"Intraocular Pressure, MEAN","1 mg/g BOL-303242-X (Group D), untreated left eyes, Day 24",22.4 mmHg
same,"Intraocular Pressure, MEAN","1 mg/g BOL-303242-X (Group D), untreated left eyes, Day 26",22.9 mmHg
same,"Intraocular Pressure, MEAN","1 mg/g BOL-303242-X (Group D), untreated left eyes, Day 30",23.4 mmHg
same,"Intraocular Pressure, MEAN","1 mg/g BOL-303242-X (Group D), untreated left eyes, Day 32",24.1 mmHg
same,"Intraocular Pressure, MEAN","1 mg/g BOL-303242-X (Group D), untreated left eyes, Pre-Study",23.9 mmHg
same,"Intraocular Pressure, MEAN","5 mg/g BOL-303242-X (Group C), untreated left eyes, Day 3",23.8 mmHg
same,"Intraocular Pressure, MEAN","5 mg/g BOL-303242-X (Group C), untreated left eyes, Day 5",24.4 mmHg
same,"Intraocular Pressure, MEAN","5 mg/g BOL-303242-X (Group C), untreated left eyes, Day 10",24.6 mmHg
same,"Intraocular Pressure, MEAN","5 mg/g BOL-303242-X (Group C), untreated left eyes, Day 12",23.8 mmHg
same,"Intraocular Pressure, MEAN","5 mg/g BOL-303242-X (Group C), untreated left eyes, Day 16",23.4 mmHg
same,"Intraocular Pressure, MEAN","5 mg/g BOL-303242-X (Group C), untreated left eyes, Day 18",21.9 mmHg
same,"Intraocular Pressure, MEAN","5 mg/g BOL-303242-X (Group C), untreated left eyes, Day 22",21.6 mmHg
same,"Intraocular Pressure, MEAN","5 mg/g BOL-303242-X (Group C), untreated left eyes, Day 24",22.1 mmHg
same,"Intraocular Pressure, MEAN","5 mg/g BOL-303242-X (Group C), untreated left eyes, Day 26",21.7 mmHg
same,"Intraocular Pressure, MEAN","5 mg/g BOL-303242-X (Group C), untreated left eyes, Day 30",22.6 mmHg
same,"Intraocular Pressure, MEAN","5 mg/g BOL-303242-X (Group C), untreated left eyes, Day 32",23.1 mmHg
same,"Intraocular Pressure, MEAN","5 mg/g BOL-303242-X (Group C), untreated left eyes, Pre-Study",24.2 mmHg
same,"Intraocular Pressure, MEAN","10 mg/g BOL-303242-X (Group B), untreated left eyes, Day 3",23.3 mmHg
same,"Intraocular Pressure, MEAN","10 mg/g BOL-303242-X (Group B), untreated left eyes, Day 5",23.4 mmHg
same,"Intraocular Pressure, MEAN","10 mg/g BOL-303242-X (Group B), untreated left eyes, Day 10",24.0 mmHg
same,"Intraocular Pressure, MEAN","10 mg/g BOL-303242-X (Group B), untreated left eyes, Day 12",23.8 mmHg
same,"Intraocular Pressure, MEAN","10 mg/g BOL-303242-X (Group B), untreated left eyes, Day 16",22.9 mmHg
same,"Intraocular Pressure, MEAN","10 mg/g BOL-303242-X (Group B), untreated left eyes, Day 18",21.2 mmHg
same,"Intraocular Pressure, MEAN","10 mg/g BOL-303242-X (Group B), untreated left eyes, Day 22",21.8 mmHg
same,"Intraocular Pressure, MEAN","10 mg/g BOL-303242-X (Group B), untreated left eyes, Day 24",20.2 mmHg
same,"Intraocular Pressure, MEAN","10 mg/g BOL-303242-X (Group B), untreated left eyes, Day 26",21.7 mmHg
same,"Intraocular Pressure, MEAN","10 mg/g BOL-303242-X (Group B), untreated left eyes, Day 30",22.7 mmHg
same,"Intraocular Pressure, MEAN","10 mg/g BOL-303242-X (Group B), untreated left eyes, Day 32",22.9 mmHg
same,"Intraocular Pressure, MEAN","10 mg/g BOL-303242-X (Group B), untreated left eyes, Pre-Study",23.8 mmHg
same,Differences in mean IOP versus the BSS group,"BOL-303242-X 1, 5, 10 mg/g suspensions",No statistically significant (p<0.05) differences
same,IOP compared to daily dosing with dexamethasone,"BOL-303242-X suspensions 0.05, 0.25 or 0.5 mg/dose, daily dosing up to 31 days",did not increase IOP
same,Mean IOP after treatment began,"rabbits, right eye four times daily up to 31 days, dexamethasone 0.1%, BOL-303242-X 1, 5, 10 mg/g, left and right eyes",This increase was not seen
same,"Intraocular Pressure, MEAN","treated right eyes, Day 3, 1 mg/g (Group D)",23.0 mmHg
same,"Intraocular Pressure, MEAN","treated right eyes, Day 3, 5 mg/g (Group C)",23.7 mmHg
same,"Intraocular Pressure, MEAN","treated right eyes, Day 3, 10 mg/g (Group B)",22.7 mmHg
same,"Intraocular Pressure, MEAN","treated right eyes, Day 5, 1 mg/g (Group D)",24.7 mmHg
same,"Intraocular Pressure, MEAN","treated right eyes, Day 5, 5 mg/g (Group C)",24.7 mmHg
same,"Intraocular Pressure, MEAN","treated right eyes, Day 5, 10 mg/g (Group B)",23.8 mmHg
same,"Intraocular Pressure, MEAN","treated right eyes, Day 10, 1 mg/g (Group D)",24.8 mmHg
same,"Intraocular Pressure, MEAN","treated right eyes, Day 10, 5 mg/g (Group C)",25.2 mmHg
same,"Intraocular Pressure, MEAN","treated right eyes, Day 10, 10 mg/g (Group B)",24.5 mmHg
same,"Intraocular Pressure, MEAN","treated right eyes, Day 12, 1 mg/g (Group D)",23.4 mmHg
same,"Intraocular Pressure, MEAN","treated right eyes, Day 12, 5 mg/g (Group C)",25.0 mmHg
same,"Intraocular Pressure, MEAN","treated right eyes, Day 12, 10 mg/g (Group B)",23.9 mmHg
same,"Intraocular Pressure, MEAN","treated right eyes, Day 16, 1 mg/g (Group D)",22.1 mmHg
same,"Intraocular Pressure, MEAN","treated right eyes, Day 16, 5 mg/g (Group C)",24.3 mmHg
same,"Intraocular Pressure, MEAN","treated right eyes, Day 16, 10 mg/g (Group B)",23.4 mmHg
